“And” between values parts separate entries of the source, which are not always exact repeats. Equal values may be shown once. One block for each substance: values may come before it.
Experiments:
[1] = tested on: human platelet aggregation; experiment: Inhibition of human platelet aggregation in platelet-rich plasma; type: cell-based; conditions: human PRP
Method: (§1) Platelet-rich plasma (PRP) was obtained from human donors by centrifugation. Platelet aggregation at 37° C. and TXB2 secretion were induced by the addition of an aggregating agent (inducer) as indicated in the table below. Platelet aggregation was determined by measurement of the suspension optical density in a double beam aggregometer. Results are expressed as % of the control aggregation obtained by the addition of the inducer in the absence of an inhibitor. TXB2, secretion to the extracellular medium, was determined by radioimmunoassay. When the test PLI was applied, the PRP was incubated with the inhibitor for 10 min at 37° C., prior to induction of aggregation.

[2] = tested on: prostacyclin (6-keto-PGF1 α) production in cultured adrenal capillary endothelial cells; experiment: Inhibition of prostacyclin production in endothelial cells; type: cell-based; conditions: for % Inhibition of prostacyclin production: PLI 1 mg/ml + Bradykinin 1 μM; for 6-keto-PFG1α PROD.: PLI 1 mg/ml + Bradykinin 1 μM (Bradykinin alone 201.9 ± 21.6)
Method: Method: Cultured adrenal capillary endothelial cells were stimulated to produce prostacyclin (6-keto-PGF1 α) by bradykinin in the absence and presence of CMS or HME. The prostacyclin, secreted to the culture medium was determined by radioimmunoassay.

[3] = tested on: Thromboxane (TXB2) secretion by human platelets; experiment: Inhibition of thromboxane (TXB2) secretion by human platelets; type: cell-based; conditions: human PRP
Method: as §1

[4] = tested on: PLA2-oedema (purified phospholipase A2 from porcine pancreas, subplantar); experiment: Inhibition of PLA2-oedema in rats (paw plethysmometry); type: in vivo; conditions: rat
Method: By subplantar injection of 200 U PLA2 (ca. 0.3 mg purified phospholipase A2 from porcine pancreas, Boehringer Mannheim) in 100 μl physiological saline into the left hind paw of male or female rats (LEW/TIF, ca. 200 g body weight, 5 animals per group) a localized edema was induced and its intensity was determined plethysmometrically 3 and 5 hours later. Test compounds were suspended in 0.75% methylcellulose and administered i.p. (5 ml/kg) 1 hour prior to the PLA2 injection. The edema-inhibiting effect was expressed as percent inhibition in comparison to vehicle-treated controls.

[5] = tested on: Prostaglandin (PGE2) production in mouse peritoneal macrophages; experiment: Inhibition of PGE2 production in mouse peritoneal macrophages; type: cell-based; conditions: 10^-5 M phorbol-myristate-acetate, 2 hours, repeated lines per PLI type
Method: Peritoneal cells from NMRI mice were obtained by lavage with Dulbeccos MEM. The cells were washed and plated at 2×10^4 /well in Dulbeccos MEM with FCS in 96-well plates. After 2 hours (or overnight) incubation at 37°, the adherent macrophages were washed 3 times. The medium was replaced by Dulbeccos MEM with lactalbumin hydrolysate. Test compounds were suspended in water. One hour later, the macrophages were stimulated with 10^-5 M phorbol-myristate-acetate. Another 2 hours later, PGE2 and LTC4 were measured int he supernatants by radioimmunoassay. The results are expressed as IC50 of PGE2 - and LTC4 -production.

[6] = tested on: crude phospholipase A2 (extracted from human polymorphonuclear leukocytes); experiment: Inhibition of phospholipase A2 from human PMN leukocytes (14C-oleate-labelled E. coli substrate); type: biochemical; conditions: 37°, 60 min, pH 7.0, 0.5 mmol/l CaCl2
Method: The reaction is stopped by extraction with modified Dole reagent. Free oleic acid is separated on a disposable silicic acid (Kieselgel G 100) column and the radioactivity is determined. Percent inhibition is calculated after subtracting a blank (assay mixture without enzyme).

[7] = tested on: adjuvant arthritis (Freunds adjuvant paw swelling); experiment: Adjuvant arthritis model of inflammation; type: in vivo, rat; conditions: for gross signs of toxicity: 70 mg/kg subcutaneously, two week dosing period; for paw diameter (measured with calipers): arthritic animals, by day 14; for paw diameter (measured with calipers) / decrease in paw swelling, injected paw / decrease in paw swelling, noninjected paw: 70 mg/kg subcutaneously day 3 to day 14; for decrease in paw swelling, injected paw / decrease in paw swelling, noninjected paw: arthritic rats, day 14
Method: Two compounds (CMS and HMS) were tested in the adjuvant arthritis model of inflammation. Paw swelling is induced by an injection of Freunds adjuvant into the right hind paw. Systemic inflammation spreads to the controlateral paw within 2 weeks. The compounds were administered subcutaneously from day 3 to day 14 at a dose of 70 mg/kg. […] CMS decreased noninjected paw swelling 51% (P≤0.005) and injected paw swelling 30% (P≤0.001). […] No drug treated group lost weight compared to the arthritic controls.

[8] = tested on: Phospholipase A2 (PLA2) activity in Rat Basophilic Leukemia (RBL) cells; experiment: Inhibition of PLA2 activity in RBL cells (C6-NBD-PC hydrolysis); type: cell-based
Method: Cultured RBL cells were incubated with the fluorescent substrate of PLA2 (C6 -NBD-PC) as described by Yedgar et al. (1986) FEBS Letters, 200:165-168. After 1 hour of incubation, the cultures were subjected to lipid extraction and determination of C6 -NBD-PC hydrolysed as previously described.

[9] = tested on: Serotonin secretion in Rat Basophilic Leukemia (RBL) cells; experiment: Inhibition of serotonin secretion in RBL cells; type: cell-based; conditions: HMS 1.5 mg/ml, ionophore A23187 0.3 μM
Method: Cultured RBL were incubated with tritiated serotonin (10^7 DPM/ml/10^6 cell) for 2 hours, then washed. Serotinin secretion was activated in the absence or presence of HMS (1.5 mg/ml) by the addition of the ionophore A23187 (0.3 μM) for the desired time. The radioactive serotonin accumulated in the culture medium during the activation period was determined. In the absence of HMS, approximately 1.3 and 1.9 DPM×10^5 was excreted in 15 and 30 minutes, respectively, whereas in the presence of the HMS, only about 0.3 DPM×10^5 was secreted in each of these time periods.

[10] = Epinephrine 0.8 μg/ml, PLI 1.5 mg/ml
[11] = line (e), 1 × i.p., dose not given
[12] = 100 mg/kg i.p., 1 hour prior to PLA2
[13] = 1 × 20 mg/kg i.p., 1 hour prior to PLA2

Substance: alginic acid phosphatidylserine [ALS]
Aggregation (% of control) [1, 10]: 5 % of control

Substance: Hemaccellphosphatidylethanolamine [HME]
% Inhibition of prostacyclin production [2]: 82%
6-keto-PFG1α PROD. [2]: 36.4 ± 7.2 PG/10^-6 Cells
Aggregation (% of control) ([1]; ADP 2 μg/ml, PLI 0.70 mg/ml): 6 % of control
Aggregation (% of control) ([1]; Collagen 40 μg/ml, PLI 0.85 mg/ml): 13 % of control
Aggregation (% of control) ([1]; Epinephrine 0.8 μg/ml, PLI 0.75 mg/ml): 9 % of control
TXB2 secreted ([3]; ADP 2 μg/ml, PLI 0.70 mg/ml (without PLI 82 ± 4)): 14 ± 7 ng/mL
TXB2 secreted ([3]; Collagen 40 μg/ml, PLI 0.85 mg/ml (without PLI 42 ± 6)): 17 ± 7 ng/mL
% Inhibition of PLA2-oedema, 3 hours [4, 11]: 0%
% Inhibition of PLA2-oedema, 5 hours [4, 11]: 0%
% Inhibition of PLA2-oedema, 3 hours ([4]; line (f), i.p., dose not given): 27%
% Inhibition of PLA2-oedema, 5 hours ([4]; line (f), i.p., dose not given): 25%
% Inhibition of PLA2-oedema, 3 hours ([4]; line (g), i.p., dose not given): 53%
% Inhibition of PLA2-oedema, 5 hours ([4]; line (g), i.p., dose not given): 45%

Substance: carboxymethylcellulose phosphatidylethanolamine [CME]
Aggregation (% of control) [1, 10]: 0 % of control

Substance: alginic acid phosphatidylethanolamine [ALE]
Aggregation (% of control) ([1]; Epinephrine 0.8 μg/ml, PLI 0.7 mg/ml): 9 % of control

Substance: carboxymethylcellulosephosphatidylserine [CMS]
IC50 for PGE2 production [5]: 100 µg/mL and > 100 µg/mL
Inhibition of PLA2 from human PMN, IC50 [6]: 40 µg/mL
% Inhibition of prostacyclin production [2]: 61%
6-keto-PFG1α PROD. [2]: 78.7 ± 6.8 PG/10^-6 Cells
Aggregation (% of control) [1, 10]: 0 % of control
gross signs of toxicity [7]: no gross signs of toxicity
paw diameter (measured with calipers) [7]: significantly decreased
decrease in paw swelling, injected paw [7]: 30%
decrease in paw swelling, noninjected paw [7]: 51%
% Inhibition of PLA2-oedema, 3 hours [4, 12]: 51%
% Inhibition of PLA2-oedema, 5 hours [4, 12]: 54%
% Inhibition of PLA2-oedema, 3 hours [4, 13]: 15%
% Inhibition of PLA2-oedema, 5 hours [4, 13]: 29%

Substance: Hemaccellphosphatidylserine [HMS]
IC50 for PGE2 production [5]: > 100 µg/mL
Inhibition of PLA2 from human PMN, IC50 [6]: 57 µg/mL
Aggregation (% of control) ([1]; Epinephrine 0.8 μg/ml, PLI 1.2 mg/ml): 2 % of control
C6-NBD-PC hydrolysed ([8]; HMS 0.5 mg/ml (control 1.42 ± 0.19)): 0.37 ± 0.04 nmole/mg cell protein-hour
C6-NBD-PC hydrolysed ([8]; HMS 1.5 mg/ml (control 1.42 ± 0.19)): 0.11 ± 0.07 nmole/mg cell protein-hour
gross signs of toxicity [7]: no gross signs of toxicity
paw diameter (measured with calipers) [7]: significantly decreased
decrease in paw swelling, injected paw [7]: 19%
decrease in paw swelling, noninjected paw [7]: 43%
radioactive serotonin secreted to culture medium ([9]; 15 minutes (without HMS approx. 1.3)): about 0.3 DPM×10^5
radioactive serotonin secreted to culture medium ([9]; 30 minutes (without HMS approx. 1.9)): about 0.3 DPM×10^5
% Inhibition of PLA2-oedema, 3 hours [4, 12]: 63%
% Inhibition of PLA2-oedema, 5 hours [4, 12]: 80%
% Inhibition of PLA2-oedema, 3 hours [4, 13]: 36%
% Inhibition of PLA2-oedema, 5 hours [4, 13]: 62%

IC50 for PGE2 production [5]: 300 µg/mL and 600 µg/mL
Inhibition of PLA2 from human PMN, IC50 [6]: 720 µg/mL
Substance: Dextranhydrazide-dodecanedioic-phosphatidylserine [Dex-Ac-PS, reference compound]
Aggregation (% of control) ([1]; ADP 2 μg/ml, PLI 3.0 mg/ml): 14 % of control
Aggregation (% of control) ([1]; Epinephrine 0.8 μg/ml, PLI 6.5 mg/ml): 19 % of control
